Measured values: PubChem BioAssay (NCI)
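1) Cells in 96-well plates. 2) Compound, 48 h, 5 concentrations. 3) Linear interpolation between surrounding doses. 4) Unreached endpoint = highest concentration. GI50 marks 50% less growth. At the TGI there is no net growth.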

Columns and labels:
Assay in all cases: NCI tumour cell line growth inhibition, 48 h
SNB-19 CNS = system: SNB-19 CNS
RPMI-8226 leukemia = system: RPMI-8226 leukemia
IGROV1 ovarian = system: IGROV1 ovarian
RXF 393 renal = system: RXF 393 renal
NCI-H460 lung = system: NCI-H460 lung
TK-10 renal = system: TK-10 renal
SNB-75 CNS = system: SNB-75 CNS
KM12 colon = system: KM12 colon
SW-620 colon = system: SW-620 colon
T-47D breast = system: T-47D breast
A549 NSCLC = system: A549 NSCLC
NCI-H23 lung = system: NCI-H23 lung
OVCAR-3 ovarian = system: OVCAR-3 ovarian
SK-MEL-28 melanoma = system: SK-MEL-28 melanoma
EKVX NSCLC = system: EKVX NSCLC
ACHN renal = system: ACHN renal
HT29 colon = system: HT29 colon
HS 578T breast = system: HS 578T breast
COLO 205 colon = system: COLO 205 colon
SF-268 CNS = system: SF-268 CNS
HL-60(TB) leukemia = system: HL-60(TB) leukemia
CAKI-1 renal = system: CAKI-1 renal
MALME-3M melanoma = system: MALME-3M melanoma
HOP-62 NSCLC = system: HOP-62 NSCLC
LOX IMVI melanoma = system: LOX IMVI melanoma
SF-539 CNS = system: SF-539 CNS
CCRF-CEM leukemia = system: CCRF-CEM leukemia
HCC-2998 colon = system: HCC-2998 colon
SN12C renal = system: SN12C renal
HCT-116 colon = system: HCT-116 colon
NCI-H522 lung = system: NCI-H522 lung
U251 CNS = system: U251 CNS
SR leukemia = system: SR leukemia
K-562 leukemia = system: K-562 leukemia
SF-295 CNS = system: SF-295 CNS
SK-MEL-5 melanoma = system: SK-MEL-5 melanoma
HCT-15 colon = system: HCT-15 colon
MDA-MB-435 = system: MDA-MB-435
MOLT-4 leukemia = system: MOLT-4 leukemia
M14 melanoma = system: M14 melanoma
OVCAR-8 ovarian = system: OVCAR-8 ovarian
UO-31 renal = system: UO-31 renal
MDA-MB-231 breast = system: MDA-MB-231 breast
MDA-N = system: MDA-N
DU-145 prostate = system: DU-145 prostate
UACC-257 melanoma = system: UACC-257 melanoma
OVCAR-5 ovarian = system: OVCAR-5 ovarian
UACC-62 melanoma = system: UACC-62 melanoma
A498 renal = system: A498 renal
NCI-H226 lung = system: NCI-H226 lung
OVCAR-4 ovarian = system: OVCAR-4 ovarian
MCF7 breast = system: MCF7 breast
BT-549 breast = system: BT-549 breast
HOP-92 NSCLC = system: HOP-92 NSCLC
SK-OV-3 ovarian = system: SK-OV-3 ovarian
SK-MEL-2 melanoma = system: SK-MEL-2 melanoma
NCI/ADR-RES ovarian = system: NCI/ADR-RES ovarian
PC-3 prostate = system: PC-3 prostate

COc1cc(CNc2nc3cc(C(F)(F)F)ccc3nc2C)cc(OC)c1OC
TGI (SNB-19 CNS): > 100000 nM
TGI (RPMI-8226 leukemia): 65700 nM
TGI (IGROV1 ovarian): 33300 nM
TGI (RXF 393 renal): 44700 nM
TGI (NCI-H460 lung): 36000 nM
TGI (TK-10 renal): 42600 nM
TGI (SNB-75 CNS): 57100 nM
TGI (KM12 colon): 40000 nM
TGI (SW-620 colon): 33600 nM
TGI (T-47D breast): 40400 nM
TGI (A549 NSCLC): > 100000 nM
TGI (NCI-H23 lung): 76100 nM
TGI (OVCAR-3 ovarian): > 100000 nM
TGI (SK-MEL-28 melanoma): 65000 nM
TGI (EKVX NSCLC): 67400 nM
TGI (ACHN renal): 38100 nM
TGI (HT29 colon): 33600 nM
TGI (HS 578T breast): 39700 nM
TGI (COLO 205 colon): 30200 nM
TGI (SF-268 CNS): > 100000 nM
TGI (HL-60(TB) leukemia): 51900 nM
TGI (CAKI-1 renal): 96400 nM
TGI (MALME-3M melanoma): 41800 nM
TGI (HOP-62 NSCLC): 71300 nM
TGI (LOX IMVI melanoma): 27800 nM
TGI (SF-539 CNS): 62200 nM
TGI (CCRF-CEM leukemia): 62600 nM
TGI (HCC-2998 colon): 37800 nM
TGI (SN12C renal): 30800 nM
TGI (HCT-116 colon): 72200 nM
TGI (NCI-H522 lung): 48500 nM
TGI (U251 CNS): 36700 nM
TGI (SR leukemia): 76100 nM
TGI (K-562 leukemia): 73900 nM
TGI (SF-295 CNS): 46500 nM
TGI (SK-MEL-5 melanoma): 46900 nM
TGI (HCT-15 colon): 32800 nM
TGI (MDA-MB-435): 55500 nM
TGI (MOLT-4 leukemia): 50700 nM
TGI (M14 melanoma): 30800 nM
TGI (OVCAR-8 ovarian): > 100000 nM
TGI (UO-31 renal): 63900 nM
TGI (MDA-MB-231 breast): 29300 nM
TGI (MDA-N): 33200 nM
TGI (DU-145 prostate): > 100000 nM
TGI (UACC-257 melanoma): 37900 nM

Nc1ccc(-n2c(=O)oc3ccc(Cl)cc3c2=O)c(Cl)c1
GI50 (SNB-19 CNS): 122 nM
TGI (SNB-19 CNS): > 100000 nM
GI50 (OVCAR-5 ovarian): 467 nM
TGI (OVCAR-5 ovarian): > 100000 nM
GI50 (RPMI-8226 leukemia): 55.8 nM
TGI (RPMI-8226 leukemia): 256 nM
GI50 (IGROV1 ovarian): 140 nM
TGI (IGROV1 ovarian): 36700 nM
GI50 (UACC-62 melanoma): 52.7 nM
TGI (UACC-62 melanoma): 220 nM
GI50 (RXF 393 renal): 83.8 nM
TGI (RXF 393 renal): 293 nM
GI50 (NCI-H460 lung): 109 nM
TGI (NCI-H460 lung): 3740 nM
GI50 (TK-10 renal): 187 nM
TGI (TK-10 renal): 20400 nM
GI50 (A498 renal): 37.2 nM
TGI (A498 renal): 114 nM
GI50 (SNB-75 CNS): 89.4 nM
TGI (SNB-75 CNS): 410 nM
GI50 (KM12 colon): 255 nM
TGI (KM12 colon): 908 nM
GI50 (SW-620 colon): 161 nM
TGI (SW-620 colon): 8180 nM
GI50 (T-47D breast): 67.9 nM
TGI (T-47D breast): 263 nM
GI50 (A549 NSCLC): 234 nM
TGI (A549 NSCLC): > 38700 nM
GI50 (NCI-H23 lung): 92.1 nM
TGI (NCI-H23 lung): 486 nM
GI50 (NCI-H226 lung): 154 nM
TGI (NCI-H226 lung): 787 nM
GI50 (OVCAR-3 ovarian): 107 nM
TGI (OVCAR-3 ovarian): 7210 nM
GI50 (SK-MEL-28 melanoma): 100 nM
TGI (SK-MEL-28 melanoma): 730 nM
GI50 (EKVX NSCLC): 213 nM
TGI (EKVX NSCLC): > 56300 nM
GI50 (ACHN renal): 169 nM
TGI (ACHN renal): 4410 nM
GI50 (HT29 colon): 1170 nM
TGI (HT29 colon): > 35300 nM
GI50 (HS 578T breast): 81 nM
TGI (HS 578T breast): 562 nM
GI50 (COLO 205 colon): 2970 nM
TGI (COLO 205 colon): 8260 nM
GI50 (SF-268 CNS): 108 nM
TGI (SF-268 CNS): 2330 nM
GI50 (HL-60(TB) leukemia): 49.9 nM
TGI (HL-60(TB) leukemia): 267 nM
GI50 (CAKI-1 renal): 77 nM
TGI (CAKI-1 renal): 479 nM
GI50 (OVCAR-4 ovarian): 111 nM
TGI (OVCAR-4 ovarian): > 94800 nM
GI50 (MALME-3M melanoma): 83.8 nM
TGI (MALME-3M melanoma): 362 nM
GI50 (HOP-62 NSCLC): 202 nM
TGI (HOP-62 NSCLC): 1590 nM
GI50 (MCF7 breast): 262 nM
TGI (MCF7 breast): > 31800 nM
GI50 (LOX IMVI melanoma): 128 nM
TGI (LOX IMVI melanoma): 946 nM
GI50 (SF-539 CNS): 116 nM
TGI (SF-539 CNS): 1010 nM
GI50 (BT-549 breast): 84.4 nM
TGI (BT-549 breast): 338 nM
GI50 (CCRF-CEM leukemia): 139 nM
TGI (CCRF-CEM leukemia): 1560 nM
GI50 (HCC-2998 colon): 377 nM
TGI (HCC-2998 colon): 2650 nM
GI50 (SN12C renal): 97.1 nM
TGI (SN12C renal): 1070 nM
GI50 (HCT-116 colon): 108 nM
TGI (HCT-116 colon): 520 nM
GI50 (NCI-H522 lung): 74.1 nM
TGI (NCI-H522 lung): 588 nM
GI50 (U251 CNS): 118 nM
TGI (U251 CNS): > 34500 nM
GI50 (HOP-92 NSCLC): 28.1 nM
TGI (HOP-92 NSCLC): 168 nM
GI50 (SK-OV-3 ovarian): 93.4 nM
TGI (SK-OV-3 ovarian): 1600 nM
GI50 (SK-MEL-2 melanoma): 207 nM
TGI (SK-MEL-2 melanoma): 807 nM
GI50 (SR leukemia): 98.7 nM
GI50 (K-562 leukemia): 108 nM
TGI (K-562 leukemia): > 100000 nM
GI50 (SF-295 CNS): 1070 nM
TGI (SF-295 CNS): 2800 nM
GI50 (SK-MEL-5 melanoma): 48 nM
TGI (SK-MEL-5 melanoma): 136 nM
GI50 (HCT-15 colon): 138 nM
TGI (HCT-15 colon): 21600 nM
GI50 (MDA-MB-435): 113 nM
TGI (MDA-MB-435): 883 nM
GI50 (MOLT-4 leukemia): 368 nM
TGI (MOLT-4 leukemia): 2320 nM
GI50 (M14 melanoma): 104 nM
TGI (M14 melanoma): 680 nM
GI50 (OVCAR-8 ovarian): 147 nM
TGI (OVCAR-8 ovarian): 5530 nM
GI50 (UO-31 renal): 87.2 nM
TGI (UO-31 renal): 533 nM
GI50 (MDA-MB-231 breast): 111 nM
TGI (MDA-MB-231 breast): 1680 nM
GI50 (NCI/ADR-RES ovarian): 172 nM
TGI (NCI/ADR-RES ovarian): 1030 nM
GI50 (DU-145 prostate): 202 nM
TGI (DU-145 prostate): 14000 nM
GI50 (UACC-257 melanoma): 74.1 nM
TGI (UACC-257 melanoma): 433 nM
GI50 (PC-3 prostate): 264 nM
TGI (PC-3 prostate): 9590 nM
